Data from ChEMBL document CHEMBL1201862, “PubChem BioAssay data set” (2004).
The source made the active and inactive calls.

Tests used:
[1] = HEK293T cell cytotoxicity, dose response, cytotoxicity control, CellTiter-Glo luminescence, cherry-picked samples, set 4 (AID 743441); assay type: functional, cell-based; conditions: HEK293
[2] = target: T1, Scavenger receptor class B member 1 (Mus musculus, UniProt Q61009); assay: inhibitors of SR-BI-mediated HDL uptake, dose response, cell-based, ldlA[mSR-BI] CHO, DiI fluorescence, dry powder, set 10 (AID 624029); assay type: functional
[3] = target: T1, Scavenger receptor class B member 1; assay: inhibitors of SR-BI dependent HDL uptake, dose response, ldlA[mSR-BI] CHO cells, fluorescence plate reader, dry powder, set 9 (AID 623880); assay type: functional, cell-based
Caspase-6 = target: T2, Caspase-6 (Homo sapiens, UniProt P55212); assay: human caspase-6 inhibitors, dose response, biochemical, VEID-R110 fluorescence, cherry-pick (AID 720632)
T2 sequence (P55212 whole entry): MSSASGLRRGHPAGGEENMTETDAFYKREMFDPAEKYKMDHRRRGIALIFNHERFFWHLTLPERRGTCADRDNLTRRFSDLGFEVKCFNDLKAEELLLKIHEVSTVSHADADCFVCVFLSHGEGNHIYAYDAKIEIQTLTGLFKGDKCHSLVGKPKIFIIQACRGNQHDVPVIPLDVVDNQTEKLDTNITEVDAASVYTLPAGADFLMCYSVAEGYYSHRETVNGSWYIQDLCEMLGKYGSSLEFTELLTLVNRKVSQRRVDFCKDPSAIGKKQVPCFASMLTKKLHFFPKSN

[4] = target: T3, Histone-lysine N-methyltransferase NSD2 (Homo sapiens, UniProt O96028); assay type: biochemical
T3 sequence (O96028 whole entry): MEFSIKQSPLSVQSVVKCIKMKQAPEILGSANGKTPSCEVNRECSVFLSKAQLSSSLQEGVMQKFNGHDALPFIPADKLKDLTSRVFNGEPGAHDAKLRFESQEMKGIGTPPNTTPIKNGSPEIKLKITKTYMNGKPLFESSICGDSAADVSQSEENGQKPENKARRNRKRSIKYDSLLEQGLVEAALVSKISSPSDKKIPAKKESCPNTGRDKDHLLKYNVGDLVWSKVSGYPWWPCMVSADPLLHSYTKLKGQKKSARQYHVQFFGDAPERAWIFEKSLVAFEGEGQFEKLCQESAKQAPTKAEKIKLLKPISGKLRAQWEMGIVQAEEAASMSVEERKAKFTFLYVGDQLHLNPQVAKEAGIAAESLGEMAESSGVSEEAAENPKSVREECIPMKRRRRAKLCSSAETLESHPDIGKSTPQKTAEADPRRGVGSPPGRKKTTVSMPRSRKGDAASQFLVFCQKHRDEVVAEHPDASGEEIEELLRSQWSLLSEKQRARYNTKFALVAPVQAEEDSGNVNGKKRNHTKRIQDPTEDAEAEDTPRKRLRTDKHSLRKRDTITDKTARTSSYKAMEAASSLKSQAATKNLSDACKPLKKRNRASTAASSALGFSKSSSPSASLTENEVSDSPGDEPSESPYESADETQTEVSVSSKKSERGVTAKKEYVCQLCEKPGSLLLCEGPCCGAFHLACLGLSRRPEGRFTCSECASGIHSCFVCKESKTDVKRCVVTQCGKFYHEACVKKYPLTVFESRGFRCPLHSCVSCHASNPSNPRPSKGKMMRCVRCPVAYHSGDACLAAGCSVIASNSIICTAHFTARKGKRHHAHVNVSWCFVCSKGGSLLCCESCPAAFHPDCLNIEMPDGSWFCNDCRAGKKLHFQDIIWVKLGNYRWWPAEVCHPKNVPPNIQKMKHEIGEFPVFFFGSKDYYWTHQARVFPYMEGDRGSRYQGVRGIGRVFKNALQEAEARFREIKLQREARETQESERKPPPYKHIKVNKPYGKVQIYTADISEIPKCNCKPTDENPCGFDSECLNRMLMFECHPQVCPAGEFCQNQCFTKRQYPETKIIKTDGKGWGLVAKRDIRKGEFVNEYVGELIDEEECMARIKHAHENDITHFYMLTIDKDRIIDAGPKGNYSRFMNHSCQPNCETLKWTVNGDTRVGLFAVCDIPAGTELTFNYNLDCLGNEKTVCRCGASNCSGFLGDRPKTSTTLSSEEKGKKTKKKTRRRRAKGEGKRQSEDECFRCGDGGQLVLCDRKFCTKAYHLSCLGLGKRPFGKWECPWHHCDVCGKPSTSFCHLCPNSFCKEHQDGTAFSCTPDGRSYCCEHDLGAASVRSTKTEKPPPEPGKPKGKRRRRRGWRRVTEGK

[5] = HeLa cell cytotoxicity, dose response, cytotoxicity control for MgcRacGAP inhibitor project (AID 624300); assay type: functional
Nonstructural protein 1 = Nonstructural protein 1 (Influenza A virus, UniProt Q194T2); assay type: functional, Influenza A virus (A/California/07/2009(H1N1))
[6] = target: Matrix metalloproteinase-14 (Homo sapiens, UniProt P50281); assay: Dose Response confirmation of uHTS hits for a small molecule inhibitors of MT1-MMP activation in a fluorescence assay set 2.; assay type: functional
HeLa = assay: HeLa cell cytotoxicity, dose response, cytotoxicity control, 24 h, cherry-picked samples (AID 504726); assay type: functional, cell-based; conditions: Homo sapiens;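 note: potency for cytotoxicity as loss of luminescence signal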
[7] = target: T4, Rac GTPase-activating protein 1 (Homo sapiens, UniProt Q9H0H5); assay: MgcRacGAP GTPase-activating activity inhibitors, confirmation, biochemical, ADP Hunter fluorescence, primary and confirmatory (AID 624330); assay type: functional
T4 sequence (Q9H0H5 whole entry): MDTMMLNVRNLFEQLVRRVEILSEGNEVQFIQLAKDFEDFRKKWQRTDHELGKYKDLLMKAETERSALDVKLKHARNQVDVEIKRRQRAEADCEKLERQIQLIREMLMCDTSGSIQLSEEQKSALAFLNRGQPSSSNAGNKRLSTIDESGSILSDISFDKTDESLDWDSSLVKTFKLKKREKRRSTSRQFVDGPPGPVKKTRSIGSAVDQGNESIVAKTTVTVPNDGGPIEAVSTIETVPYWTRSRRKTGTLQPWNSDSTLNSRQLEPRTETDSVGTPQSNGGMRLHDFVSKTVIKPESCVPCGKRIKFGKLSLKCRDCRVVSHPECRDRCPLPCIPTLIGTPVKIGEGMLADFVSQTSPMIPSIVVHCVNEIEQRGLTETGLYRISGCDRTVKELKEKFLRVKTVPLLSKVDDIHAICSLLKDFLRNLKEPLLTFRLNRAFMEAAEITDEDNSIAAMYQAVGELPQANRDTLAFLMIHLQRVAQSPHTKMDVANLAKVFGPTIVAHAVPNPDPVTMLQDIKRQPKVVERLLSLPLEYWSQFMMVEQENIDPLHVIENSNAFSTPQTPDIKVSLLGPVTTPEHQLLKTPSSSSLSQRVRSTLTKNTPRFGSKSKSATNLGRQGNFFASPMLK

ORF 73 = target: T5, ORF 73 (Human herpesvirus 8, UniProt O40947); assay: inhibitors of C-LANA binding to LBS DNA, dose response, biochemical, fluorescence polarization, cherry-picked samples (AID 504725); design: species or system Human gammaherpesvirus 8;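 note: fluorescence polarization of a labeled DNA duplex reporting LANA DNA binding; potency is for inhibitors that block LANA binding to the DNA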
T5 sequence (O40947 whole entry): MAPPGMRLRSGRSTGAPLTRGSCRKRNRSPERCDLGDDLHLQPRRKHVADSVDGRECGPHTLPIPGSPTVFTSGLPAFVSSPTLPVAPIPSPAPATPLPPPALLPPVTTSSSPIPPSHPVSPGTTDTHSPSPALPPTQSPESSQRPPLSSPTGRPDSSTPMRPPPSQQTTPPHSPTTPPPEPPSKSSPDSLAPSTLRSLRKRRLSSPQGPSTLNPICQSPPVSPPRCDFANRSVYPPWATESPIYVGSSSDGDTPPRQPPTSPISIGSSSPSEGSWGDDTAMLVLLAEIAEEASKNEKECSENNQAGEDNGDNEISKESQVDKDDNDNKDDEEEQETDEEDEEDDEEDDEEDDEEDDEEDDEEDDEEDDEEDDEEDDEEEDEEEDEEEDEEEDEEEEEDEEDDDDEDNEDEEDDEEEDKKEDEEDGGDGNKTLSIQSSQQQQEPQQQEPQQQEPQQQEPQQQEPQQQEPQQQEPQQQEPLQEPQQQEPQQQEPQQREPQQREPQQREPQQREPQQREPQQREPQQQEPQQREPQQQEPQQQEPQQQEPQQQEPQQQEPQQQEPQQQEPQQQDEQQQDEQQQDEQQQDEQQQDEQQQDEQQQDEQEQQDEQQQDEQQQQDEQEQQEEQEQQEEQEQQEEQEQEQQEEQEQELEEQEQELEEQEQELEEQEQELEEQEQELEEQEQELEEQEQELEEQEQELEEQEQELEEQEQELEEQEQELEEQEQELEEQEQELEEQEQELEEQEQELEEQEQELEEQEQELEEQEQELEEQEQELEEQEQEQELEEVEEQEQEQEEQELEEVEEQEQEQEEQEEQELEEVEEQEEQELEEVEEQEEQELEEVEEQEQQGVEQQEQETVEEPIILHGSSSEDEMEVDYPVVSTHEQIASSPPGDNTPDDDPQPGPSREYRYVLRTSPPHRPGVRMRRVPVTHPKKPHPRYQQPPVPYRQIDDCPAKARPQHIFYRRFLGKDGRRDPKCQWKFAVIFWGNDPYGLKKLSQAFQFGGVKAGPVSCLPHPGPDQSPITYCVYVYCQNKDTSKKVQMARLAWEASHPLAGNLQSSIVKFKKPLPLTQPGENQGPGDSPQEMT

cells = conditions: HEK293

T1 sequence (Q61009 whole entry): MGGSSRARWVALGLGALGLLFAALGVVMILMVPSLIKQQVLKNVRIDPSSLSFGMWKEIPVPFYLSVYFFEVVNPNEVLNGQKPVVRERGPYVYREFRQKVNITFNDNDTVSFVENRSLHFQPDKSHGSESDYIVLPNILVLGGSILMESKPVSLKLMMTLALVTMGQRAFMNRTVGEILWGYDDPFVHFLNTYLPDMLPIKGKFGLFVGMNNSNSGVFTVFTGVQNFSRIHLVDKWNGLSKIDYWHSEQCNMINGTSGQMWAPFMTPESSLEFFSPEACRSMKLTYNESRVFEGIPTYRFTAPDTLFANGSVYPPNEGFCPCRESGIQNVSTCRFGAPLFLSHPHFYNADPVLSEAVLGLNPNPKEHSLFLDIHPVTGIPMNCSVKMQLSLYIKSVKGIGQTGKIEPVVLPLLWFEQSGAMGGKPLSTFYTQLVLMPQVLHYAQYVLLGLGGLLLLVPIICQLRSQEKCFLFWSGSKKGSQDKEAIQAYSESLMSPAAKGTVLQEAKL
Sequence of Nonstructural protein 1 (Q194T2 whole entry): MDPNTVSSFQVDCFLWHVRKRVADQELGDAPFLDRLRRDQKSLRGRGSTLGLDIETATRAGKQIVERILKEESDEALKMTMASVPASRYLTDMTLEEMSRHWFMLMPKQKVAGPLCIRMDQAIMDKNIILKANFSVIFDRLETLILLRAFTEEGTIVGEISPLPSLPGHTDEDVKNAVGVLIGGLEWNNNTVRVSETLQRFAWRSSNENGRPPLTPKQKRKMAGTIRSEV

Which AC50 [1] does the source give for `CCOc1ccccc1NC(=O)c1ccc2ccccc2c1` here?
Its AC50 is > 52 µM (inactive).

What does the source list for `O=C(O)CC(C(=O)Nc1cccc(C(F)(F)F)c1)C1CCCO1` (configuration not stated)?
AC50 [2]: 34.3 µM (active); AC50 [3]: 45.4 µM (active)

Which AC50 (Caspase-6) does the source give for `O=S(=O)(O)c1cc(O)c(N=Nc2ccc(O)cc2O)c2ccccc12` here?
The AC50 was 2.16 µM (active).

And the AC50 [4]?
Its AC50 is 7.35 µM (active).

And the CC50 [5]?
The CC50 was 100 µM (active).

What about the IC50 (Nonstructural protein 1) of the same compound?
Its IC50 is 4.32 µM (active).

What about the IC50 [6] of the same compound?
Its IC50 is 20.5 µM (inactive).

And the AC50 (HeLa)?
Its AC50 is 32.4 µM (active).

What about the IC50 [7] of the same compound?
Its IC50 is 28.8 µM (active).

And the AC50 (ORF 73)?
Its AC50 is 22.2 µM (active).

For `Cc1c(C(=O)NCc2ccc(Cl)c(Cl)c2)sc(=O)n1Cc1cccc(F)c1`, which AC50 (cells) is on record?
The AC50 was > 52 µM (inactive).
